One test relates to E. coli. Nature of the test: E. coli kill with photosensitizers with and without copper under broad-spectrum Reptile Light. To be noted: for effectiveness as photosensitizer: as shown in Example 2, under the test conditions; for log reduction: Reptile Light 8,520 Lux (26 W/m2). Format: cell-based, Escherichia coli. As for the experimental part: In this example we compare different photosensitizers (50 μM in water) in combination with and without copper sulfate. An agricultural adjuvant sticker spreader, Silwet® L-77 was also included at a 0.0125% concentration. The conditions experimental were the same as Example 1: E. coli as the test organism, using copper sulfate at 10 ppm, and a light exposure time of 30 minutes. However, in this test series we used a light source that reproduced the spectrum of sunlight, including UV. It is used to in terrariums for housing reptiles, some of which require a UV component in their light. It is referred to here as the Reptile Light (Zoo Med 2019).
In this example we also used the Reptile Light. In these tests the light intensity was 8,520 Lux, or 26 W/m2 (for comparison, this could be full daylight on a cloudy day, or a common light level in a greenhouse). […] Silwet (see Helena 2019) is an agricultural nonionic organosilicone surfactant adjuvant wetting and spreading agent commonly used with pesticides, also commonly known as a sticker spreader).
In this example we tested a commercial algicide product, Cutrine®, which contains copper ethanolamine (from the product label: Copper Ethanolamine Complex, Mixed (Mono CAS #14215-52-2 and Tri CAS #82027-59-6) 27.9%; OTHER INGREDIENTS 72.1% TOTAL 100.0% Metallic copper equivalent, 9%; Contains 0.909 lbs. of elemental copper per gallon) (EPA Reg. No. 8959-10). Copper ethanolamine is effective in keeping the copper salt in solution at neutral pH. The tests were done as above, under the reptile light for 30 minutes.
The above tests using CuSO4 at 10 ppm is equivalent to 3.98 ppm copper. We initially tested Cutrine® at a low and a high concentration, where the low concentration is adjusted to have approximately 3.98 ppm copper as before, and the high concentration is 39.8 ppm copper (same copper concentration as 100 ppm CuSO4). We tested them with and without 18 ppm riboflavin. Again, tests were run in triplicate.

The test system of test [1] is Escherichia coli (E. coli) bacteria (ATCC 25922). Nature of the test: Photodynamic treatment of E. coli under blue LED light; colonies plated and reduction vs untreated control. The conditions noted are these: for % reduction: converted from log kill. Format: cell-based. How it is done: Tests were carried out with Escherichia coli (E. coli) bacteria (ATCC 25922) in which the organisms were exposed to varying test conditions. The light source for photoactivation was a blue LED light (HIGROW 2019) that was placed 7 cm from the container containing the E. coli. The photoactivator was riboflavin (Aldrich R7649, lot VVXBB4048V, purity 98.6%) at a concentration of 18 ppm. Copper sulfate was used at a concentration of 10 ppm (aqueous solution). The tests included a wetting agent Silwet® L-77 at a concentration of 0.0125%. Silwet® L-77 is a product of Helena Agri-Enterprises, LLC of Collierville, TN, and is a nonionic organosilicone surfactant co-polymer that has enhanced wetting and spreading characteristics when used in aqueous sprays. Silwet® L-77 has a CAS Registry Number of 27306-78-1. Each test was carried out for the prescribed time, which varied from 5 minutes to 30 minutes. At the end of the exposure time the bacteria were diluted and plated so that the colonies could be enumerated and the corresponding reduction determined by comparison with the untreated control.
We also carried out tests to evaluate the effect of light intensity. These tests used 10 ppm copper sulfate and 18 ppm riboflavin (aqueous solution) in a 15-minute exposure under the blue light, using neutral density filters to decrease the light intensity. The full light intensity at the 450 nm to 460 nm range was 353 W/m^2.

For test [2], the system named is Xanthomonas hortorum pv. pelargonii. Briefly: Reduction of Xanthomonas hortorum pv. pelargonii leaf spots on geranium plants in greenhouse. Format: in vivo. To be noted: single spray 24 hours before inoculation, leaf spots counted two weeks after inoculation.
Where [3] appears, read: photosensitizer alone, 50 μM in water, Reptile Light, 30 minutes.
Setting [4] is: photosensitizer alone, 50 μM in water, Reptile Light, 30 minutes, median (EY, RMP: average).
The mark [5] stands for this setting: 18 ppm alone, blue light, 30 minutes.
[6] abbreviates: 10 ppm + Silwet (0.0125%), 30 minutes.
[7] abbreviates: 10 ppm alone, blue light, 30 minutes.

Results on six compounds are retold here after patent US12108756B2, “Photodynamic method of inhibiting growth of a microbial plant pathogen” (priority 2019, dated 2024).

Regarding riboflavin monophosphate [RMP], the “% kill” value with E. coli (setting [3]) is 3.17%. In addition, the Log kill in the test with E. coli (setting [4]) is on record as 0.042 Log.
Consider Eosin Y [EY], for which the effectiveness as photosensitizer result in the test with E. coli was “effective”. In addition, in the test on E. coli (setting [3]), the “% kill” value worked out at 6.46%. Besides, the Log kill in the test on E. coli (setting [4]) is 0.87 Log.
The matching figures for `O=C1OC2(c3cc(I)c(O)c(I)c3Oc3c2cc(I)c(O)c3I)c2c(Cl)c(Cl)c(Cl)c(Cl)c21` [RB, Rose Bengal]: “effective”, 30.81% and 0.16 Log.
The matching figures for `O=C1OC2(c3ccccc31)c1cc(I)c(O)c(I)c1Oc1c2cc(I)c(O)c1I` [ER, erythrosine]: “effective”, 25.88% and 0.13 Log.
For the compound `Cc1cc2nc3c(=O)[nH]c(=O)nc-3n(C[C@H](O)[C@H](O)[C@H](O)CO)c2cc1C` [riboflavin], the log kill in test [1] (setting [5]) is 0.83 log; in test [1] (18 ppm, in the dark), “did not produce any measurable kill”; with E. coli (riboflavin alone, reptile light, 30 minutes, from previous test data), less than 1 log. Besides, the “% reduction” value in test [1] (setting [5]) is reported as 85.208%. The log reduction is 0.15 log with E. coli (setting [6]) and 1.6 log in the test with E. coli (50 ppm, 1 hour). Further, the Log kill was 0.115 Log with E. coli (18 ppm alone, reptile lamp, 30 minutes) and 0.115 Log in the test on E. coli (setting [4]). The effectiveness as photosensitizer entry in the test with E. coli is “most effective”. In addition, the “% kill” value with E. coli (setting [3]) stood at 23.26%. For the same compound, the “effectiveness against leaf spots” value in test [2] was “only partially effective”.
Take `O=S(=O)([O-])[O-].[Cu+2]` [copper sulfate]: the log kill in test [1] (setting [7]) is listed as 0.954 log; in test [1] (10 ppm, in the dark, 30 minutes) it was 0.226 log. Also, in test [1] (setting [7]), the “% reduction” value came to 88.88%. For the same compound, the log reduction in the test with E. coli (setting [6]) stood at 0.13 log; in the test on E. coli (40 ppm, 30 minutes), 0.13 log. Further, the “% kill” value with E. coli (10 ppm alone, reptile lamp, 30 minutes) is on record as 26.04%. Moreover, the Log kill with E. coli (10 ppm alone, reptile lamp, 30 minutes, median value) is on record as 0.131 Log.
